The assay relates to primary cortical neuronal cultures. The following applies: for neuroprotection, peptide present during the 5 minute glutamic acid insult only: FIG. 28; for neuroprotection, 10 minute pre-exposure removed immediately prior to insult: FIG. 29, FIG. 14.

Where two headings read alike, the source gives them in different places.

Usually IC50 stands for the point on the concentration scale where inhibition reaches its midpoint. As for `N=C(N)NCCC[C@H](NC(=O)[C@H](CCCNC(=N)N)NC(=O)[C@H](CCCNC(=N)N)NC(=O)[C@H](CCCNC(=N)N)NC(=O)[C@H](CCCNC(=N)N)NC(=O)[C@H](CCCNC(=N)N)NC(=O)[C@H](CCCNC(=N)N)NC(=O)[C@H](CCCNC(=N)N)NC(=O)[C@@H](N)CCCNC(=N)N)C(=O)O` [Peptide R9], the “neuroprotection, peptide present during the 5 minute glutamic acid insult only” value is listed as “effective” and the “neuroprotection, 10 minute pre-exposure removed immediately prior to insult” value is listed as “effective”. Moreover, under “15 min post-glutamic acid (FIG. 1d)”, the “neuroprotection when added 15 minutes post-insult” value was “mildly effective”. Further, under “glutamic acid model”, the “fold more potent than TAT-D, based on IC50 values” was found to be 17 fold. Also, the “MTS absorbance levels relative to baseline” value (normal neurons and following injury) is “increase MTS absorbance levels above baseline levels”. For the same compound, where the note is “read-out: IC50: Glutamic acid model, Table 3, from dose response graph FIG. 1a, peptide 15 min prior to and during 100 μM glutamic acid (5 min), viability 24 h, MTS”, the IC50 is 780 nM. Under “read-out: IC50: Glutamic acid model, Table 4, polyarginine peptides, from dose response graph FIG. 1e”, the IC50 came out at 830 nM.
Consider H-RRRRRRRRRRRRRRRRRR-OH [Peptide R18], for which the IC50 turned out to be 240 nM; the “neuroprotection, peptide present during the 5 minute glutamic acid insult only” value is “effective”; the “neuroprotection, 10 minute pre-exposure removed immediately prior to insult” value is given as “effective”. In addition, where the note is “5 μM, dose response study”, the “neuroprotective efficacy at the higher concentration” value was “reduced”. The “neuroprotection (neuronal viability)” value (peptide 15 min prior to and during glutamic acid exposure, viability 24 h, MTS) was “showed significant neuroprotection”.

Source of the values: patent publication US20160250285A1, “NEUROPROTECTIVE PEPTIDES” (priority 2013, published 2016).
